In publication PMC6916019, “In vitro anti-malarial efficacy of chalcones: cytotoxicity profile, mechanism of action and their effect on erythrocytes” (Malaria Journal, 2019):
Structures can show the parent of a compound that is named as a salt. Where two headings read alike, the source gives them in different places.

How the values were obtained:
[1] = system: haemozoin (β-haematin) production in P. falciparum cultures; test: Haemozoin inhibition assay in P. falciparum cultures; format: cell-based, Plasmodium falciparum; conditions: drug near IC50 concentration, 48 h; untreated control 547.61 ± 9.52
Experimental: Briefly, the test cultures were centrifuged for 5–10 min at 1300 rpm to dispose of the culture medium. Infected erythrocyte pellet (mingled of β-haematin and erythrocyte membrane) were exposed to 0.01% saponin lysis for 10 min at 25 °C to lyse erythrocyte to release parasites. […] The haemozoin content was quantified by taking the absorbance at 400 nm and using a standard curve prepared from β-haematin. The amount of haemozoin formed in relation to control was calculated. All assays were performed in triplicate.

[2] = system: P. falciparum chloroquine resistant strain (RKL-9); test: WHO Mark III schizont maturation inhibition assay, chloroquine resistant strain; format: cell-based, Plasmodium falciparum; conditions: for Selective index (SI) P.falciparum chloroquine^R (RKL-9): SI = CC50 (HeLa)/IC50 (RKL-9); for Resistance Index (RI) IC50 (RKL-9)/IC50 (MRC-2): ratio of IC50 resistant / sensitive strain
Experimental: (§1) These strains were perpetuated in vitro in continuous culture according to the method of Trager and Jensen with slight modifications. Briefly, both sensitive and resistant strains of P. falciparum were maintained in A+ erythrocytes in RPMI-1640 medium (having glutamine, but without any sodium bicarbonate) comprising 1.00 g of dextrose, 5.94 g of HEPES buffer, 40.00 mg of gentamycin. Additionally supplemented with 5% sodium bicarbonate and 10% (v/v) inactivated human AB+ serum then incubated in gas mixture of 5% CO2, 5% O2 and 90% N2 at 37 °C. Parasitized erythrocytes at initial 5% haematocrit were suspended in above mentioned culture medium and parasitaemia was regularly checked to maintain level between 2 and 4% with further sub-culturing for parasitaemia beyond 5%. Growth and multiplication of parasite was monitored by microscopy using Giemsa-stained slides.
(§2) To obtain ring stages of the parasite, the cultures were synchronized using D-sorbitol. The cultures, with majority of ring stages, were treated with equal volume of aqueous 5% D-sorbitol for 5 min and then after centrifugation pellet were suspended in complete medium and fresh erythrocytes synchronized culture with 1% parasitaemia and 5% haematocrit were used for compound concentration response assay.
(§3) The concentration of each test compound needed to hinder multiplication of parasites by 50% (IC50) against P. falciparum strains were obtained through concentration response assay performed in 96-well sterile tissue culture plates. Synchronized parasite cultures were applied to different doses of each compound. Dilutions were performed in gentamycin-free culture medium, and incubated at 37 °C having gaseous mixture (5% CO2, 5% O2 and 90% N2) supply for 24 h. The results were expressed as IC50 values computed from HN-NonLin Regression analysis, as well as mean percentage inhibition ± standard error examined by thick smear Giemsa stained slides. %ParasiteInhibition29,30=100-TotalnumberofSchizontsintestwells/TotalnumberofSchizontsincontrolwell∗100
(§4) Parasite at ring stage was used for compound concentration response assay with parasitaemia of 1% at 5% haematocrit. […] The IC50 and IC90 values of all compounds were determined and the resistance index between the two sensitive and resistant strains was calculated (Table 2). […] The percentage inhibition in schizont maturation was also calculated after incubation of ring stage P. falciparum till 24 h at the same range of drug concentrations (Table 3).

[3] = system: HeLa cell line
Experimental: (§5) Cytotoxicity of the compounds on mammalian cells were accomplished employing HeLa cell line (NCCS, Pune) cultured in DMEM supplemented with 10% FBS by the MTT (3-(4,5-dimethylthiazol-2-yl)-2,5-diphenyltetrazolium bromide) microenzymatic method with certain modifications [32]. Briefly, cells (10^4 cells/200 μL/well) were seeded into 96-well flat-bottom sterile tissue culture plates in complete medium. After 24 h of seeding, the test compounds at different dilutions were added and kept for another 24 h in a humidified chamber with 5% CO2 at 37 °C. Twenty microlitres of MTT (5.00 mg/mL in 1XPBS) stock solution were pipetted into each well, mixed and incubated for at least 3–4 h. After incubation, the plates were centrifuged at 1500 rpm for 5 min. The supernatant was disposed cautiously and 100 μL of DMSO were added to each well to lyse the cell and dissolve the insoluble purple formazan product into a coloured solution. Absorbance was taken at 570 nm to determine formazan formation as a measurement of cell viability. Experiments were performed in triplicate.

[4] = system: P. falciparum chloroquine sensitive strain (MRC-2); test: microbe, parasite or virus in culture; conditions: for % Schizont maturation inhibition ± SD (MRC-2): Conc. = 6.25 μg/mL; for % Schizont maturation inhibition ± SD (MRC-2) / P. falciparum Chloroquine^s Strain (MRC-2) IC50 / P. falciparum Chloroquine^s Strain (MRC-2) IC90: 24 h; for Selective index (SI) P.falciparum chloroquine^s (MRC-2): SI = CC50 (HeLa)/IC50 (MRC-2); for P. falciparum Chloroquine^s Strain (MRC-2) IC50 / P. falciparum Chloroquine^s Strain (MRC-2) IC90: schizont maturation, ring stage
Experimental: as §1, §2, §3, §4

[5] = system: HeLa cell line; test: MTT cytotoxicity / cell viability assay; conditions: MTT, 24 h, not in table head
Experimental: as §5

[6] = system: normal erythrocytes; test: Haemolysis assay on normal erythrocytes; conditions: Conc. = 12.5 μg/mL, 3 h, 37 °C
Experimental: (§6) Briefly, fresh erythrocytes were centrifuged for 5 min at 1600 rpm for at least thrice in PBS and then the remaining pellet was re-suspended in PBS at 2% hematocrit. One hundred microlitres of this suspended pellet was added to 96-well sterile culture plate having test compounds at different desired concentrations. PBS alone (for baseline values) and 0.4% Triton X-100 in PBS (for 100% haemolysis) were employed as controls. After keeping at 37 °C for 3 h, the test samples were centrifuged and the supernatant was used for determination of the haemolytic activity quantified in terms of haemoglobin release as monitored spectrophotometrically by taking absorbance at 415 nm [33]. The experiment was done in triplicate and the mean ± SD was calculated [33, 34]. %Haemolysis=[Absorbanceofsample415nm-Absorbanceofblanksample415nm/Absorbanceofpositivecontrol415nm]∗100

[7] = in vitro
Experimental: as §6

[8] = MTT cytotoxicity / cell viability assay; conditions: human, HeLa cells
Experimental: as §5

[9] = system: Plasmodium; conditions: comparison value, reference not given; cited from earlier work
[10] = schizont maturation, 24 h, ring stage

IC50 ([2]; Plasmodium falciparum, read-out: P. falciparum Chloroquine^R Strain (RKL-9) IC50, schizont maturation, 24 h, ring stage) [µg/mL] | IC90 ([2]; Plasmodium falciparum, read-out: P. falciparum Chloroquine^R Strain (RKL-9) IC90, schizont maturation, 24 h, ring stage) [µg/mL] | Compound | Amount of haemozoin production [1] [ng/mL] | % Schizont maturation inhibition ± SD (RKL-9) ([2]; Conc. = 6.25 μg/mL, 24 h) [%] | Selective index (SI) P.falciparum chloroquine^R (RKL-9) [2] | Resistance Index (RI) IC50 (RKL-9)/IC50 (MRC-2) [2] | P. falciparum Chloroquine^R Strain (RKL-9) IC50 [2, 10] [µg/mL] | P. falciparum Chloroquine^R Strain (RKL-9) IC90 [2, 10] [µg/mL] | HeLa Cell CC50 [3] [µg/mL] | % Schizont maturation inhibition ± SD (MRC-2) [4] [%] | Selective index (SI) P.falciparum chloroquine^s (MRC-2) [4] | P. falciparum Chloroquine^s Strain (MRC-2) IC50 [4] [µg/mL] | P. falciparum Chloroquine^s Strain (MRC-2) IC90 [4] [µg/mL] | HeLa Cell CC50 [5] [µg/mL] | % Hemolysis ± SD [6] [%] | hemolysis at 3 h, 12.5 μg/mL [7] [%] | inhibition at 6.25 µg/mL ([2]; Plasmodium falciparum, Conc. = 6.25 μg/mL, 24 h, read-out: % Schizont maturation inhibition ± SD (RKL-9)) [%] | CC50 at 24 h [8] [µg/mL] | viability at 24 h, 12.5 µg/mL [8] [%] | IC50 of licochalcone [9] [µg/mL]
 |  | COc1ccc(/C=C/C(=O)c2cc(OC)c(OC)c(OC)c2)cc1 [Chalcone 6] | 457.14 ± 38.09 | 43.85 ± 33.23 | 8.74 | 0.54 | 0.19 | 0.98 | 1.66 | 51.05 ± 42.42 | 4.74 | 0.35 | 5.23 |  |  |  |  |  |  | 
 |  | COc1ccc(/C=C/C(=O)c2cc(OC)c(OC)c(OC)c2)cc1OC [Chalcone 7] | 385.71 ± 4.76 | 85.82 ± 6.36 | 85.05 | 1.64 | 0.18 | 0.67 |  | 94.24 ± 2.21 | 139.18 | 0.11 | 0.46 |  |  |  |  |  |  | 
 |  | COc1cc(C(=O)/C=C/c2ccc3c(c2)OCO3)cc(OC)c1OC [Chalcone 8] |  | 77.78 ± 1.41 | 8.46 | 0.90 | 0.26 | 5.31 | 2.20 | 75.17 ± 12.02 | 7.59 | 0.29 | 1.01 |  |  |  |  |  |  | 
 |  | O=C(/C=C/c1cc2ccccc2[nH]1)c1ccc(Cl)cc1 [Chalcone 9] |  | 48.87 ± 25.46 | 7.85 | 0.84 | 0.21 | 0.95 |  | 50.32 ± 33.23 | 6.60 | 0.25 | 0.96 | 1.65 | 1.30 ± 0.009 |  |  |  |  | 
 |  | O=C(/C=C/c1cc2ccccc2[nH]1)c1ccc(I)cc1 [Chalcone 10] |  | 49.62 ± 19.79 | 9.90 | 0.95 | 0.19 | 0.81 | 1.88 | 64.44 ± 9.90 | 9.40 | 0.20 | 0.89 |  |  |  |  |  |  | 
0.25 | 1.59 | C=C[C@H]1C[N@@]2CC[C@H]1C[C@H]2[C@H](O)c1ccnc2ccc(OC)cc12 [QNN, quinine hydrochloride, reference compound] |  |  | 121.24 |  |  |  |  |  |  |  |  |  |  | 2.16 ± 0.035 | 71.9 ± 16.3 | 30.3 | 62.62 ± 0.06 | 
 |  | C=CC(C)(C)c1cc(/C=C/C(=O)c2ccc(O)cc2)c(OC)cc1O [licochalcone] |  |  |  |  |  |  |  |  |  |  |  |  |  |  |  |  |  | 1.43
